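The compound was tested at five concentrations on cells cultured in 96-well plates, with a 48-hour exposure period. TGI is the concentration that stops growth completely.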
Legend:
Assay in all cases: growth of human tumour cells (NCI), 48 h
RXF 393 renal = system: RXF 393 renal
KM20L2 colon = system: KM20L2 colon
SK-MEL-2 melanoma = system: SK-MEL-2 melanoma
OVCAR-8 ovarian = system: OVCAR-8 ovarian
HL-60(TB) leukemia = system: HL-60(TB) leukemia
K-562 leukemia = system: K-562 leukemia
MALME-3M melanoma = system: MALME-3M melanoma
NCI-H522 lung = system: NCI-H522 lung
SF-539 CNS = system: SF-539 CNS
IGROV1 ovarian = system: IGROV1 ovarian
UACC-62 melanoma = system: UACC-62 melanoma
UACC-257 melanoma = system: UACC-257 melanoma
SR leukemia = system: SR leukemia
OVCAR-5 ovarian = system: OVCAR-5 ovarian
SNB-19 CNS = system: SNB-19 CNS
SF-268 CNS = system: SF-268 CNS
LOX IMVI melanoma = system: LOX IMVI melanoma
HOP-62 NSCLC = system: HOP-62 NSCLC
SW-620 colon = system: SW-620 colon
TK-10 renal = system: TK-10 renal
A498 renal = system: A498 renal
DMS 114 small cell lung = system: DMS 114 small cell lung
NCI-H23 lung = system: NCI-H23 lung
SK-MEL-5 melanoma = system: SK-MEL-5 melanoma
CCRF-CEM leukemia = system: CCRF-CEM leukemia
UO-31 renal = system: UO-31 renal
DLD-1 colon = system: DLD-1 colon
OVCAR-3 ovarian = system: OVCAR-3 ovarian
RPMI-8226 leukemia = system: RPMI-8226 leukemia
SNB-78 CNS = system: SNB-78 CNS
HT29 colon = system: HT29 colon
HOP-18 NSCLC = system: HOP-18 NSCLC
EKVX NSCLC = system: EKVX NSCLC
KM12 colon = system: KM12 colon
A549 NSCLC = system: A549 NSCLC
786-0 renal = system: 786-0 renal
HOP-92 NSCLC = system: HOP-92 NSCLC
HCT-15 colon = system: HCT-15 colon
MOLT-4 leukemia = system: MOLT-4 leukemia
CAKI-1 renal = system: CAKI-1 renal
NCI-H460 lung = system: NCI-H460 lung
M14 melanoma = system: M14 melanoma
SK-OV-3 ovarian = system: SK-OV-3 ovarian
SK-MEL-28 melanoma = system: SK-MEL-28 melanoma
DMS 273 small cell lung = system: DMS 273 small cell lung
XF 498 CNS = system: XF 498 CNS
M19-MEL melanoma = system: M19-MEL melanoma
SF-295 CNS = system: SF-295 CNS
LXFL 529 NSCLC = system: LXFL 529 NSCLC
HCT-116 colon = system: HCT-116 colon
U251 CNS = system: U251 CNS
NCI/ADR-RES ovarian = system: NCI/ADR-RES ovarian
T-47D breast = system: T-47D breast
ACHN renal = system: ACHN renal
PC-3 prostate = system: PC-3 prostate
SN12C renal = system: SN12C renal
HS 578T breast = system: HS 578T breast
DU-145 prostate = system: DU-145 prostate
MDA-MB-435 = system: MDA-MB-435
OVCAR-4 ovarian = system: OVCAR-4 ovarian
MCF7 breast = system: MCF7 breast
MDA-MB-231 breast = system: MDA-MB-231 breast
MDA-N = system: MDA-N
NCI-H226 lung = system: NCI-H226 lung
BT-549 breast = system: BT-549 breast
COLO 205 colon = system: COLO 205 colon
HCC-2998 colon = system: HCC-2998 colon
SNB-75 CNS = system: SNB-75 CNS

Measured: TGI

Cc1c(OCCCOc2ccc3c(=O)cc(-c4ccccc4)oc3c2C)ccc2c(=O)cc(-c3ccccc3)oc12
not listed: NCI/ADR-RES ovarian | T-47D breast | ACHN renal | PC-3 prostate | SN12C renal | HS 578T breast | DU-145 prostate | MDA-MB-435 | OVCAR-4 ovarian | MCF7 breast | MDA-MB-231 breast | MDA-N | NCI-H226 lung | BT-549 breast | COLO 205 colon | HCC-2998 colon | SNB-75 CNS
> 100 µM: all other assays above

COC1(OC)C2(Cl)C(Cl)=C(Cl)C1(Cl)C1c3ccc(C(C)=O)c4cccc(c34)C12 (configuration not stated)
86.6 µM: MDA-N
52.7 µM: HCC-2998 colon
47.3 µM: HL-60(TB) leukemia
81.4 µM: NCI-H226 lung
22.1 µM: HOP-92 NSCLC
20.9 µM: DMS 273 small cell lung
> 80.5 µM: NCI-H460 lung
> 87.4 µM: ACHN renal
32.1 µM: A498 renal
27.7 µM: SK-MEL-5 melanoma
> 89.9 µM: SNB-75 CNS
> 77.6 µM: MOLT-4 leukemia
> 83 µM: NCI-H23 lung
34.8 µM: COLO 205 colon
50.2 µM: SR leukemia
> 79.2 µM: CCRF-CEM leukemia
> 96.4 µM: M14 melanoma
99.9 µM: U251 CNS
87.4 µM: KM20L2 colon
58 µM: MALME-3M melanoma
99.3 µM: T-47D breast
> 70.2 µM: NCI-H522 lung
43.5 µM: MDA-MB-435
50.1 µM: SK-MEL-2 melanoma
not listed: DLD-1 colon | XF 498 CNS
> 100 µM: all other assays above

From PubChem BioAssay (NCI)
